Read-outs that look alike come from different tables or passages of the source.
Key:
[1] = biological target: T1, PRMT5 (Homo sapiens, UniProt O14744); assay: PRMT5 biochemical IC50 assay with SAM as cofactor; conditions: PRMT5, SAM as cofactor; read-out: SAM IC50
T1 construct: purchased Viva (custom protein)

[2] = biological target: T1, PRMT5; assay: PRMT5 biochemical IC50 assay with no cofactor; conditions: PRMT5, no cofactor; read-out: No Cofactor/rel IC50
Excerpt: Table 1 indicates IC50 values (μM) against PRMT5 for exemplary compounds in the presence of SAM as cofactor, with no cofactor, and with MTA as cofactor, respectively (columns 4-6). […] Ki values can be calculated from the IC50 values as described in the Examples section. As detailed in the Examples section, for the assay performed in the presence of SAM, IC50=Ki×1.5 (Ki=IC50/1.5).

[3] = biological target: T1, PRMT5; assay: PRMT5 biochemical IC50 assay with MTA as cofactor; conditions: PRMT5, MTA as cofactor; read-out: MTA IC50
[4] = system: HAP1 MTAP-deleted cell line; assay: Viability assay, MTAP-deleted cell line; assay type: cell-based; conditions: read-out: HAP1 MTAP deleted viability
Excerpt: Table 1 additionally indicates IC50 values in a viability assay for the MTAP-deleted cell line (column 10), indicating the effect of treatment with compound on cell survival.

[5] = Homo sapiens, HAP1, viability assay, MTAP-deleted cell line
[6] = Homo sapiens, HAP1, viability assay, HAP1 MTAP-deleted
[7] = Homo sapiens, HAP1, viability IC50, MTAP-deleted cell line

T1 sequence (O14744 whole entry): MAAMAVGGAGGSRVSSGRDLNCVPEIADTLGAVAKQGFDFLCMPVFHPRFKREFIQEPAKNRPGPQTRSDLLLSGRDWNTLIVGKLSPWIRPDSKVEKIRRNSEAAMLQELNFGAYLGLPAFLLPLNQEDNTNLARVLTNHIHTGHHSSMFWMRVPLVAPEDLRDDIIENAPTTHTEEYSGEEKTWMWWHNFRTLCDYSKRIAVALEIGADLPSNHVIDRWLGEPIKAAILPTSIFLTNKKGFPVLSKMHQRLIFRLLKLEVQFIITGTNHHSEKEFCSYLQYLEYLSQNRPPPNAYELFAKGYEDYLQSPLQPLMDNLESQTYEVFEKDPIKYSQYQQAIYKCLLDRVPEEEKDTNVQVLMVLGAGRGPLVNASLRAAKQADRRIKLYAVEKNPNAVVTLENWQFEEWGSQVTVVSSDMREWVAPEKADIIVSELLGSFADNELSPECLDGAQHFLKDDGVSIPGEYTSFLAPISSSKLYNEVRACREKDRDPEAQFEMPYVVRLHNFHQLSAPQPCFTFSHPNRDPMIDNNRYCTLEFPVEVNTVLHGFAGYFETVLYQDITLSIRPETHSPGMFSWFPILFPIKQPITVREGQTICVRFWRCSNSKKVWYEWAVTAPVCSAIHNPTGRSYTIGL
T1 sequence (Q9BQA1 whole entry partner): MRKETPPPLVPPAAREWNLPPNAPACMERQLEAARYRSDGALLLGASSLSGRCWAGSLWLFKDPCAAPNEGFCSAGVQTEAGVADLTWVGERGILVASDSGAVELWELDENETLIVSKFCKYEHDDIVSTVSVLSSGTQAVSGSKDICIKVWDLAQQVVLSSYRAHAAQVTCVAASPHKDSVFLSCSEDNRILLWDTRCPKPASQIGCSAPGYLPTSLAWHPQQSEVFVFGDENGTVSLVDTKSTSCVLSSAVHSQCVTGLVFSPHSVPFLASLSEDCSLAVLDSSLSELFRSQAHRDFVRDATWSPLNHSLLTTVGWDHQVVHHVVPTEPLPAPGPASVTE

SMILES	IC50 [1] [nM]	IC50 [2] [nM]	IC50 [3] [nM]	IC50 ([4]; viability assay, MTAP-deleted cell line) [nM]	IC50 [4, 5] [nM]	IC50 [4, 6] [nM]	IC50 [4, 7] [nM]
COc1ncc(NC(=O)C(=O)N2CCCCC2C2CCCC2)cc1C(N)=O (single isomer, unassigned) [Compound 289, 5-(2-(2-cyclopentylpiperidin-1-yl)-2-oxoacetamido)-2-methoxynicotinamide]	> 500	> 500	> 500	> 10000	–	–	–
CNc1ccc([C@@H]2CC[C@@H](C)CN2C(=O)C(=O)Nc2cncc(C(N)=O)c2)cc1 (single isomer, unassigned) [Compound 424]	> 500	> 500	> 500	–	> 10000	–	–
C[C@@H]1CC[C@@H](c2ccc3sc(N)nc3c2)N(C(=O)C(=O)Nc2cncc(C(N)=O)c2)C1 (single isomer, unassigned) [Compound 1001]	> 500	> 500	> 500	–	> 10000	–	–
C[C@@H]1CCC[C@H](c2ccccc2)N1C(=O)C(=O)Nc1cncc(C(N)=O)c1 (single isomer, unassigned) [Compound 278]	> 500	> 500	50 to 500	–	> 10000	–	–
NC(=O)c1cncc(NC(=O)C(=O)N2CCC3C(CCCN3Cc3ccccc3)C2)c1 (stereo not shown) [Compound 412, 5-[2-(1-Benzyl-decahydro-1,6-naphthyridin-6-yl)-2-oxoacetamido]pyridine-3-carboxamide]	50 to 500	> 500	50 to 500	–	> 10000	–	–
Cc1cc(NC(=O)C(=O)N2C[C@H](C)CC[C@H]2c2ccc(C(C)O)cc2)cnc1N (mixture of isomers) [Compound 956, N-(6-amino-5-methyl-3-pyridyl)-2-[(2R,5S)-2-[4-(1-hydroxyethyl)phenyl]-5-methyl-1-piperidyl]-2-oxo-acetamide]	50 to 500	50 to 500	50 to 500	–	1000 to 10000	–	–
Cc1cc(NC(=O)C(=O)N2C[C@@H](C)CC[C@@H]2c2ccc(S(C)(=O)=O)cc2)cnc1N (single isomer, unassigned) [Compound 976]	50 to 500	50 to 500	< 50	–	1000 to 10000	–	–
C[C@H]1CC[C@H](c2ccc(NCC(F)(F)F)cc2)N(C(=O)C(=O)Nc2cncc(C(N)=O)c2)C1 (single isomer, unassigned) [Compound 456]	> 500	> 500	> 500	–	> 10000	–	–
Cc1cc(NC(=O)C(=O)N2C[C@H](C)CC[C@H]2c2ccc3[nH]c(N)nc3c2)cnc1N (racemic) [Compound 990]	50 to 500	50 to 500	< 50	–	1000 to 10000	–	–
C[C@H]1CC[C@H](c2cc3cn[nH]c3s2)N(C(=O)C(=O)Nc2cncc(C(N)=O)c2)C1 (single isomer, unassigned) [Compound 971, 5-(2-(5-methyl-2-(1H-thieno[2,3-c]pyrazol-5-yl)piperidin-1-yl)-2-oxoacetamido)nicotinamide]	> 500	> 500	> 500	–	> 10000	–	–
Cc1cc(NC(=O)C(=O)N2C[C@H](C)CC[C@H]2C2CCNCC2)cnc1N (racemic) [Compound 708, N-(6-amino-5-methyl-3-pyridyl)-2-[(2R,5S)-5-methyl-2-(4-piperidyl)-1-piperidyl]-2-oxo-acetamide]	> 500	> 500	> 500	–	–	> 10000	–
COc1ncc(NC(=O)C(=O)N2C[C@@H](C)CC[C@@H]2c2ccc(F)cc2)cc1C(N)=O (single isomer, unassigned) [Compound 445]	> 500	> 500	> 500	–	> 10000	–	–
CCc1cc(NC(=O)C(=O)N2C[C@@H](C)CC[C@@H]2c2ccc3sc(C(F)(F)F)nc3c2)cnc1N (single isomer, unassigned) [Compound 1022]	50 to 500	< 50	< 50	–	< 1000	–	–
Cc1cc(NC(=O)C(=O)N2C[C@@H](C)C(F)(F)C[C@@H]2c2cccc3[nH]ncc23)cnc1N (single isomer, unassigned) [Compound 1034]	> 500	> 500	> 500	–	> 10000	–	–
C[C@H]1CC[C@H](c2ccc(NCC(=O)N(C)C)cc2)N(C(=O)C(=O)Nc2cncc(C(N)=O)c2)C1 (single isomer, unassigned) [Compound 1082]	> 500	> 500	> 500	–	> 10000	–	–
C[C@H]1CC[C@H](c2ccc3c(c2)CCCN3)N(C(=O)C(=O)Nc2cncc(C(N)=O)c2)C1 (single isomer, unassigned) [Compound 426]	> 500	> 500	> 500	–	> 10000	–	–

SMILES	IC50 [1] [nM]	IC50 [2] [nM]	IC50 [3] [nM]	IC50 ([4]; viability assay, MTAP-deleted cell line) [nM]	IC50 [4, 5] [nM]	IC50 [4, 6] [nM]	IC50 [4, 7] [nM]
Cc1cc(NC(=O)C(=O)N2C[C@@H](C)CC[C@@H]2c2ccc3[nH]nc(N)c3c2)cnc1C (single isomer, unassigned) [Compound 958]	> 500	> 500	> 500	–	> 10000	–	–
Cc1cc(NC(=O)C(=O)N2C[C@@H](C)C(F)(F)C[C@@H]2c2ccccc2)cnc1N (single isomer, unassigned) [Compound 713]	> 500	> 500	> 500	–	–	> 10000	–
NC(=O)c1cncc(NC(=O)C(=O)N2CC[C@@]3(O)CCCC[C@H]3C2)c1 (racemic) [Compound 421, 5-[2-(4a-Hydroxy-decahydroisoquinolin-2-yl)-2-oxoacetamido]pyridine-3-carboxamide]	> 500	> 500	50 to 500	–	> 10000	–	–
COc1ncc(NC(=O)C(=O)N2C[C@H](C)CC[C@H]2c2ccc3sc(CCN(C)C)nc3c2)cc1C(N)=O (single isomer, unassigned) [Compound 1197]	> 500	> 500	> 500	–	1000 to 10000	–	–
Cc1cc(NC(=O)C(=O)N2C[C@@H](C)CC[C@@H]2[C@H]2CC[C@@H](O)CC2)cnc1N (single isomer, unassigned) [Compound 423]	> 500	> 500	> 500	–	> 10000	–	–
Cc1ncc(NC(=O)C(=O)N2C[C@@H](C)CC[C@@H]2c2ccc3c(c2)CCC(=O)N3)cc1C(F)(F)F (single isomer, unassigned) [Compound 698]	> 500	> 500	> 500	–	–	–	> 10000
Cc1cc(NC(=O)C(=O)N2C[C@H](C)C(F)(F)C[C@H]2c2cccc3[nH]ncc23)cnc1N (single isomer, unassigned) [Compound 1041]	50 to 500	< 50	< 50	–	< 1000	–	–
C[C@H]1CC[C@H](c2cc(F)c3[nH]ncc3c2)N(C(=O)C(=O)Nc2cncc(C(N)=O)c2)C1 (single isomer, unassigned) [Compound 680]	> 500	> 500	> 500	–	–	–	> 10000
C[C@@H]1CC[C@@H](c2ccccc2)N(C(=O)C(=O)Nc2cncc(C(N)=O)c2)[C@@H]1C (single isomer, unassigned) [Compound 435]	> 500	> 500	> 500	–	> 10000	–	–
C[C@@H]1CC[C@@H](c2cc(F)cc(F)c2)N(C(=O)C(=O)Nc2cncc(C(N)=O)c2)C1 (racemic) [Compound 416, rac-5-{2-[(2R,5S)-2-(3,5-Difluorophenyl)-5-methylpiperidin-1-yl]-2-oxoacetamido}pyridine-3-carboxamide]	50 to 500	50 to 500	50 to 500	–	1000 to 10000	–	–
Cc1cc(NC(=O)C(=O)N2C[C@H](C)CC[C@H]2c2cccc3[nH]ccc23)cnc1N (single isomer, unassigned) [Compound 1035]	50 to 500	50 to 500	< 50	–	< 1000	–	–
C[C@@H]1CC[C@@H](c2cccc(Cl)c2)N(C(=O)C(=O)Nc2cnc(N)c(C3CC3)c2)C1 (single isomer, unassigned) [Compound 1169]	> 500	> 500	50 to 500	–	> 10000	–	–
CC(=O)Nc1ccc([C@H]2CC[C@H](C)CN2C(=O)C(=O)Nc2cncc(C(N)=O)c2)cc1 (single isomer, unassigned) [Compound 452]	> 500	> 500	> 500	–	> 10000	–	–
COc1ncc(NC(=O)C(=O)N2C[C@@H](C)CC[C@@H]2c2ccc3sc(N)nc3c2)cc1C(N)=O (racemic) [Compound 954, 5-[[2-[(2R,5S)-2-(2-amino-1,3-benzothiazol-5-yl)-5-methyl-1-piperidyl]-2-oxo-acetyl]amino]-2-methoxy-pyridine-3-carboxamide]	50 to 500	50 to 500	50 to 500	–	< 1000	–	–
CCc1cc(NC(=O)C(=O)N2C[C@H](C)CC[C@H]2c2ccc3sc(C(F)(F)F)nc3c2)cnc1N (single isomer, unassigned) [Compound 1027]	> 500	> 500	> 500	–	> 10000	–	–
Cc1ccc([C@H]2CC[C@H](C)CN2C(=O)C(=O)Nc2cncc(C(N)=O)c2)cn1 (single isomer, unassigned) [Compound 645]	> 500	> 500	> 500	–	–	–	–

From patent publication US11999727B2 (Tango Therapeutics, Inc., priority 2020, dated 2024)
